Reference: ChEMBL document CHEMBL1152753, “BRACO19 analog dimers with improved inhibition of telomerase and hPot 1” (Bioorg Med Chem, 2009)
Activity calls are given as the source filed them. The calls are words filed in the database; no cut-off is given here.

Columns and labels:
[1] = biological target: Telomerase reverse transcriptase (Homo sapiens, UniProt O14746); assay: Inhibition of human telomerase assessed as unincorporated [alpha32P]dGTP
[2] = biological target: T1, Protection of telomeres protein 1 (Homo sapiens, UniProt Q9NUX5); assay: Inhibition of human 35S-labeled Pot1 binding to human telomeric DNA
T1 sequence (Q9NUX5 whole entry): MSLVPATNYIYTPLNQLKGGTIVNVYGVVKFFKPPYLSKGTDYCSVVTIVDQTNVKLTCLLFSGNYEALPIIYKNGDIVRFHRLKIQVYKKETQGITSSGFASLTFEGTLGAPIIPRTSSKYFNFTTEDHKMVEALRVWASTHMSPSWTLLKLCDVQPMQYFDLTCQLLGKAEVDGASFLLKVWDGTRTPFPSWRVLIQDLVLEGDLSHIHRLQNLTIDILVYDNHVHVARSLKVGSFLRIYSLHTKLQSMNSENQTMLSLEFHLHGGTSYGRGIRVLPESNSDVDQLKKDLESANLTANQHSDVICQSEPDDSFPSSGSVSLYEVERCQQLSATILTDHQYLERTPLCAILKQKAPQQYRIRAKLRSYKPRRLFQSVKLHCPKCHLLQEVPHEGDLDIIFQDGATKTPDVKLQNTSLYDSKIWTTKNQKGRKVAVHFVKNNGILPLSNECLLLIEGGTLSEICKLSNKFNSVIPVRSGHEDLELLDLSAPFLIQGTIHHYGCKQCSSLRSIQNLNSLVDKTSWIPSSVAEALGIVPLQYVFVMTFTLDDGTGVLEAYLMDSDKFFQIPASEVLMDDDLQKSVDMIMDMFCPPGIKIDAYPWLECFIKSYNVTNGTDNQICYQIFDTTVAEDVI

[3] = species on record: Homo sapiens; assay: Induction of G-quadruplex structure formation in human telomeric d[5'G3(T2AG3]-3' DNA assessed as major positive band at 295 nm at 2 mole ligand concentration by CD spectroscopy
[4] = species on record: Homo sapiens; assay: (§1) Inhibition of human G-quadruplex [TTAGGG]4 DNA templet extension assessed as increase in ligand-induced polymerase stop products by Taq DNA polymerase stop assay
[5] = as §1
[6] = Inhibition of non G-quadruplex [TTAGAG]4 DNA templet extension assessed as ligand-induced polymerase stop products by Taq DNA polymerase stop assay
[7] = species on record: Homo sapiens; assay: Binding affinity to human telomeric d[5'G3(T2AG3]-3' DNA quadruplex assessed as major positive band at 292 nm at 2:1 drug to DNA ratio
[8] = species on record: Homo sapiens; assay: Stabilization of human telomeric d[5'G3(T2AG3]-3' assessed as change in melting temperature at 25 uM
[9] = species on record: Homo sapiens; assay: Induction of G-quadruplex structure formation in human telomeric d[5'G3(T2AG3]-3' DNA assessed as major positive band at 290 nm at 1 mole ligand concentration by CD spectroscopy
[10] = species on record: Homo sapiens; assay: Binding affinity to human telomeric d[5'G3(T2AG3]-3' DNA quadruplex assessed as major positive band at 292 nm at >1:1 drug to DNA ratio
[11] = species on record: Homo sapiens; assay: Binding affinity to human telomeric d[5'G3(T2AG3]-3' DNA quadruplex assessed as major positive band at 292 nm at 1:1 drug to DNA ratio

Chain of Telomerase reverse transcriptase (O14746 whole entry): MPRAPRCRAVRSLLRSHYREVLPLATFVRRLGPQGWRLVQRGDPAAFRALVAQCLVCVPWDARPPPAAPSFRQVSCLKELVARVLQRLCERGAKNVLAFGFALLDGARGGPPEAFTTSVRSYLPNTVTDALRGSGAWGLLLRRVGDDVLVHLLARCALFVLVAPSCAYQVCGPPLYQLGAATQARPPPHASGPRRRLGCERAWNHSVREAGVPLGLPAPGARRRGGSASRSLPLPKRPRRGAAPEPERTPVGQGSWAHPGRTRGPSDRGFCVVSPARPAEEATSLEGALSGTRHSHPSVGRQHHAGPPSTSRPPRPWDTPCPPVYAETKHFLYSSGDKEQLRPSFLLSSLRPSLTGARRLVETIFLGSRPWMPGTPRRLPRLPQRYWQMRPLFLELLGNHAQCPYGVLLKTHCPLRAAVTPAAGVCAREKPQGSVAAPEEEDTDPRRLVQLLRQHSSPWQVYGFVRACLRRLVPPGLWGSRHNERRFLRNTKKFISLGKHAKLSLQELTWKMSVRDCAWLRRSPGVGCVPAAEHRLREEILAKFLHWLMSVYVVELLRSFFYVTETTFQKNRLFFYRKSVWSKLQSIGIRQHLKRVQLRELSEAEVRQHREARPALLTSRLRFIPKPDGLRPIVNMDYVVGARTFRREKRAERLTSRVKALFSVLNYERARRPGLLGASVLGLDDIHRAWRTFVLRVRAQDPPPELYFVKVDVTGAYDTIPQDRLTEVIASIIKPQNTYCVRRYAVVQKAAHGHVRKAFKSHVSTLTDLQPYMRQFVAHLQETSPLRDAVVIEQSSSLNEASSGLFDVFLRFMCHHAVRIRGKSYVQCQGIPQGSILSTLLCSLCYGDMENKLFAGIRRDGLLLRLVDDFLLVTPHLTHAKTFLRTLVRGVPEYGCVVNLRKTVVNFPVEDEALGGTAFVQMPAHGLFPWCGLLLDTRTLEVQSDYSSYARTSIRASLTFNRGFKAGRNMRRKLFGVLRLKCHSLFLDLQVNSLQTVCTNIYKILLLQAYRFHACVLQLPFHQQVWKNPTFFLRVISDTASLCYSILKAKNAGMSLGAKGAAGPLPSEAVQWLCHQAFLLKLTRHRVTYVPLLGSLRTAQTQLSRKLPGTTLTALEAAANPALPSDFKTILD

IC50 [1] [µM] | IC50 [2] [µM] | Activity [3] | Activity [4] | EC50 [5] [µM] | Activity [6] | EC50 [6] [µM] | Activity [7] | ΔTm [8] [°C] | Activity [9] | Activity [10] | Activity [11] | SMILES
5.4 | 63 | Active | Dose-dependent effect | 1.8 | Dose-dependent effect | 19.1 | Active | 18 | – | – | – | CN(C)c1ccc(Nc2c3ccc(NC(=O)CCN4CCCC4)cc3nc3cc(NC(=O)CCN4CCCC4)ccc23)cc1
7.5 | 11 | – | – | 0.071 | – | 0.36 | – | 28 | Active | – | – | O=C(CCN1CCCC1)Nc1ccc2c(NCNCCNCNc3c4ccc(NC(=O)CCN5CCCC5)cc4nc4cc(NC(=O)CCN5CCCC5)ccc34)c3ccc(NC(=O)CCN4CCCC4)cc3nc2c1
4 | 17 | – | – | 0.85 | – | 4.5 | – | 23 | Active | – | – | O=C(CCN1CCCC1)Nc1ccc2c(NCCCCCCNc3c4ccc(NC(=O)CCN5CCCC5)cc4nc4cc(NC(=O)CCN5CCCC5)ccc34)c3ccc(NC(=O)CCN4CCCC4)cc3nc2c1
9 | 45 | – | Dose-dependent effect | 0.2 | Dose-dependent effect | 3.9 | – | 20 | Active | inactive | Active | O=C(CCN1CCCC1)Nc1ccc2c(NCOCCOCNc3c4ccc(NC(=O)CCN5CCCC5)cc4nc4cc(NC(=O)CCN5CCCC5)ccc34)c3ccc(NC(=O)CCN4CCCC4)cc3nc2c1
